± gives the expanded uncertainty stated by the source.
Columns and labels:
[1] = Crystal; visual observation
[2] = Molar enthalpy of transition or fusion; settings: Crystal; DSC

| SMILES | Normal melting temperature [1] | Molar enthalpy of transition or fusion [2] |
| --- | --- | --- |
| N#CCCC#N [butanedinitrile] | 57.00 ± 1 °C | 0.884 ± 0.0478 kcal/mol |
| O=[N+]([O-])c1c(Cl)c(Cl)c(Cl)c(Cl)c1Cl [pentachloronitrobenzene] | 145.00 ± 1 °C | 4.59 ± 0.143 kcal/mol |
